Non-standard residues stand in square brackets, D forms with d. Residues, ends and D or L forms follow the SMILES beside them. Sar = CNCC(=O)O
Tests used:
prothymocytes = assay: induction in vitro of Thy-1+ T cell differentiation (Komuro and Boyse), acquisition of Thy-1.2 as marker; type: cell-based, nu/nu mice; conditions: for biological activity compared with the pentapeptide prepared in Example I: qualitative statement
Description: (§1) To determine the activity and characteristics of the polypeptide of Example I, determinations were carried out on healthy 5-6 week nu/nu mice of both sexes, the mice being bred on a BALB/c background (thymocytes expressing Thy-1.2 surface antigen) and maintained under conventional conditions. For the antisera, anti Thy-1.2 sera were prepared in Thy-1 congenic mice.
(§2) For the induction in vitro of Thy-1^+ T cells or CR^+ B cell differentiation, the induction of thymocyte differentiation from prothymocytes in vitro was performed as described by Komuro and Boyse, (Lancet, 1, 740, 1973), using the acquisition of Thy-1.2 as a marker of T cell differentation. The induction of CR^+ B cell differentiation from CR^- B cell precursors in vitro was performed under similar conditions using as the assay criterion, the capacity of CR^+ B cells to bind sheep erythrocytes coated with subagglutinating quantities of rabbit antibody and nonlytic complement. Spleen cell populations from healthy nu/nu mice fractionated on discontinuous bovine serum albumin gradients were used as the source of both precursor types (Thy-1^- and CR^-) because they have few or no Thy-1^+ cells and low numbers of CR^+ cells.

CR^- B cell precursors = assay: induction in vitro of CR+ B cell differentiation from CR- B cell precursors; type: cell-based, nu/nu mice; conditions: same concentrations as for T cell induction
Description: as §1, §2

SMILES | biological activity compared with the pentapeptide prepared in Example I (prothymocytes) | concentration at which peptide is active (prothymocytes; assay of Example II) | induction of differentiation of CR+ B cells (CR^- B cell precursors)
CN(CC(=O)N[C@@H](Cc1ccc(O)cc1)C(=O)O)C(=O)[C@H](CC(=O)O)NC(=O)CN(C)C(=O)[C@@H](N)CCCNC(=N)N [IVA, H--ARG--SAR--ASP--SAR--TYR--OH] (H-R[Sar]D[Sar]Y-OH) | same biological activity | – | –
CN(CC(=O)N[C@@H](Cc1ccc(O)cc1)C(N)=O)C(=O)[C@H](CC(=O)O)NC(=O)CN(C)C(=O)[C@@H](N)CCCNC(=N)N [IVB, H--ARG--SAR--ASP--SAR--TYR--NH2] (H-R[Sar]D[Sar]Y-NH2) | same biological activity | 0.1 pg/mL | –
CC(C)[C@H](NC(=O)[C@H](CC(=O)O)NC(=O)CN(C)C(=O)[C@@H](N)CCCNC(=N)N)C(=O)N[C@@H](Cc1ccc(O)cc1)C(=O)O [Example I, H--ARG--SAR--ASP--VAL--TYR--OH] (H-R[Sar]DVY-OH) | – | – | did not induce
CN(CC(=O)N[C@@H](Cc1ccc(O)cc1)C(=O)O)C(=O)[C@H](CC(=O)O)NC(=O)[C@H](CCCCN)NC(=O)[C@@H](N)CCCNC(=N)N [Example IVC, H--ARG--LYS--ASP--SAR--TYR--OH] (H-RKD[Sar]Y-OH) | same biological activity | – | –
CC(C)[C@H](NC(=O)[C@H](CC(=O)O)NC(=O)[C@@H](C)NC(=O)[C@@H](N)CCCNC(=N)N)C(=O)N[C@@H](Cc1ccc(O)cc1)C(=O)O [III, H--ARG--D--ALA--ASP--VAL--TYR--OH] (H-R[dA]DVY-OH) | same biological activity | – | –

From patent US4397842A, “Peptides having thymopoietin-like activity” (Ortho Pharmaceutical Corporation, priority 1981, dated 1983)
